Test results from US20140113314A1, “Two Pore Channels as a Therapeutic Target to Protect Against Myocardial Ischemia and as an Adjuvant in Cardiac Surgery” (priority 2006, published 2014).
“Also recorded” adds a separate entry of the source. Where two headings read alike, the source gives them in different places.

How the values were obtained:
[1] = tested on: NaCN induced current from isolated guinea pig ventricular myocytes; experiment: NaCN induced outward current, whole-cell patch clamp in single ventricular myocytes; format: cell-based; conditions: for peak current densities induced by NaCN in the presence of blocker / ratio of peak current density induced by NaCN in the presence of blocker to that on exposure to NaCN alone: blocker 200 μM; for sensitivity of NaCN induced current in the presence of altered internal pH: quinidine 0.5 mM (pHin 6.0), Zn^2+ 5 mM (pHin 9.0)
[2] = tested on: NaCN induced current from isolated guinea pig ventricular myocytes; conditions: Ba^2+ 5 mM, extracellular, previously demonstrated; cited from earlier work
[3] = tested on: IKATP; experiment: IKATP activated by pinacidil together with low intracellular ATP, patch clamp in myocytes; format: cell-based, guinea pig; conditions: for effect on IKATP: IKATP activated by pinacidil 100 μM with intracellular ATP 0.1 mM, Zn^2+ 3 mM
Description: All the cells were held at 0 mV.
Single Guinea pig heart cell preparation. Single cardiac myocytes were enzymatically isolated from adult male guinea pig hearts as described in (Gao et al 1992, J Physiol 449:689-704). Guinea pigs, weighing 300 to 500 g, were sacrificed by peritoneal injection with sodium pentobarbital solution (1 ml of 390 mg/ml) in accordance with an approved protocol approved by the IACUC committee at SUNY-Stony Brook. The heart was isolated and placed in Ca^2+ free Tyrode solution and the aorta was cannulated. The heart was then perfused with 50 ml of Ca2+ free Tyrode solution followed by 100 ml of Tyrode solution containing 30 mol/L CaCl2 and 0.4 mg/ml collagenase at 37° C. The heart was then placed in Ca^2+ free Tyrode solution at room temperature for 2 hours. Afterward, a piece of the ventricle was dissected and teased into smaller pieces in Kraft-Brühe (KB) solution (Isenberg et al., 1982 Pflugers Arch 395:6-18) containing (in mM): KCl 83; K2HPO4 30; MgSO4 5; Na-Pyruvic Acid 5; β-OH-Butyric Acid 5; Creatine 5; Taurine 20; Glucose 10; EGTA 0.5; KOH 2; Na2-ATP 5; pH was adjusted to 7.2 by KOH. The dissociated cells were then kept in KB solution at room temperature for at least 1 hour before the experiment. All solutions were bubbled with 100% O2. The isolated cells were stored in KB solution. An Axopatch 1D amplifier (Axon Instruments, Inc) and the patch clamp technique were employed to observe cell membrane current. Patch-pipette resistances were 2 to 3 MΩ before sealing. The pipette solution contained (in mM): K-Aspartic Acid 125; KCl 15; KOH 10; MgCl2 1; HEPES 10; EGTA 11; Mg-ATP 1; pH was adjusted to 7.2 by KOH. The external Tyrode solution contained (in mM): NaCl 137.7; NaOH 2.3; KCl 4; MgCl2 1; HEPES 5; CaCl2 1; CdCl2 1; Glucose 10; pH was adjusted to 7.4 by NaOH. Under these conditions, the L-type Ca^2+ current, the Na^+/Ca^2+ exchange current and the Na^+/K^+ pump current will be absent. […] All experiments were carried out at room temperature (22±1° C.). […] All patch clamp data were digitized by the data acquisition program pClamp8 (Axon Instruments, Inc) for later analysis. Cell capacitance was obtained for each cell and currents were normalized to cell capacitances.

[4] = tested on: temperature jump (TJ) induced current in guinea pig myocytes; experiment: Temperature jump (TJ) induced current in myocytes; format: cell-based
Description: FIG. 15. The characterization of temperature jump (TJ) induced current in guinea pig myocytes. A. Sample trace of TJ induced outward current. Note the current can decay on its own. B. The TJ induced current (upper panel) and its I/V relationships (lower panel). Cells were held at […] and were subject to depolarizing voltage ramps from […] to +50 mV (250 ms duration) with a frequency of 0.1 Hz. Since the current measured at the peak c is out of the current amplitude range of the amplifier, another point near the peak (b) was chosen to construct the I/V curves of the current. C, D, E, and F. Biophysical properties of TREK-1 a heat-activated K2P channel. […] I. Summary of the inhibitory effects of Zn^2+ and quinidine on the TJ induced current (unpaired p<0.01, t-test).

[5] = tested on: myocytes; experiment: Myocyte shrinkage associated with the NaCN induced current; format: cell-based, guinea pig; conditions: quinidine 0.5 mM, Zn2+ 3 mM

**Q.** Which results are given for Nc1ccncc1 [4AP, 4-Aminopyridine]?
**A.** peak current densities of NaCN induced current with blocker ([1]; 4AP 4 mM, n=6): 24.1±5.2 pA/pF; effect on NaCN induced current ([1]; agent 4 mM): not reduced

**Q.** Which results are given for CCCCCC(O)CCCC(=O)O (centres unmarked) [5-HD, 5-hydroxydecanoic acid]?
**A.** effect on NaCN induced current ([1]; agent 200 μM): does not inhibit the NaCN induced current; also recorded: does not result in a reduced current amplitude; peak current densities induced by NaCN in the presence of blocker [1]: 24.7±2.6 pA/pF; ratio of peak current density induced by NaCN in the presence of blocker to that on exposure to NaCN alone [1]: 1.3±0.1

**Q.** With [Ba+2].[Cl-].[Cl-] [Ba^2+, BaCl2] as the compound, how does the “effect on NaCN induced current” value ([1]; Ba^2+ 20 mM) read?
**A.** can prevent the appearance of the NaCN induced current

**Q.** What about the “effect on NaCN induced current” value ([1]; Ba^2+ 20 mM, listed as Ba2+) of the same compound?
**A.** abolished

**Q.** What about the “effect on NaCN induced current” value ([1]; Ba^2+ 5-10 mM) of the same compound?
**A.** Partial inhibition

**Q.** What about the “effect on NaCN induced current” value ([1]; Ba^2+ 20-40 mM) of the same compound?
**A.** almost complete elimination

**Q.** What about the “effect on NaCN induced current” value ([1]; agent 1 mM) of the same compound?
**A.** neither Ba^2+ (1 mM, upper panel) nor Cs^+ (3 mM, lower panel) can prevent the appearance of the NaCN induced current

**Q.** And the “effect on NaCN induced current” value [2]?
**A.** partially blocked

**Q.** For [Cl-].[Cs+] [Cs^+, CsCl], which “peak current densities of NaCN induced current with blocker” value ([1]; Cs^+ 3 mM, n=5) is on record?
**A.** 19.1±2.4 pA/pF

**Q.** What about the “effect on NaCN induced current” value ([1]; agent 3 mM, listed as Cs+) of the same compound?
**A.** insensitive

**Q.** And the “effect on NaCN induced current” value ([1]; agent 3 mM, listed as CsCl)?
**A.** not affected

**Q.** Which “effect on NaCN induced current” value ([1]; agent 200 μM) does the source give for COC(=O)[C@@H](N)CCCNC(=N)N[N+](=O)[O-] [L-NAME] here?
**A.** reduced; also recorded: reduces the current

**Q.** Which “effect on NaCN induced current” value [1] does the source give for N=C(N)NCCC[C@H](N)C(=O)O [L-arginine] here?
**A.** can additionally activate an outward current; also recorded: increases the NaCN induced current

**Q.** For [Cl-].[Cl-].[Zn+2] [Zn^2+, ZnCl2], which “effect on NaCN induced current” value ([1]; Zn^2+ 5 mM) is on record?
**A.** completely abolish

**Q.** And the “effect on NaCN induced current” value ([1]; agent 3 mM)?
**A.** reversibly abolished; also recorded: can prevent the appearance of the current induced by NaCN

**Q.** What about the “effect on NaCN induced current” value ([1]; agent 3 mM, listed as ZnCl2) of the same compound?
**A.** completely blocked; also recorded: abolished

**Q.** And the “sensitivity of NaCN induced current in the presence of altered internal pH” value [1]?
**A.** remains sensitive

**Q.** What about the “effect on IKATP” value [3] of the same compound?
**A.** cannot be blocked; also recorded: unaffected

**Q.** What about the “effect on TJ induced current” value [4] of the same compound?
**A.** can prevent the appearance of TJ induced current

**Q.** What about the “effect on NaCN induced current and cell shrinkage” value [5] of the same compound?
**A.** prevent the appearance of the NaCN induced current and cell shrinkage

**Q.** For COc1ccc(Cl)cc1C(=O)NCCc1ccc(S(=O)(=O)NC(=O)NC2CCCCC2)cc1 [glibenclamide], which “effect on NaCN induced current” value ([1]; agent 200 μM) is on record?
**A.** does not prevent the appearance of the NaCN induced current; also recorded: could not be abolished

**Q.** And the “peak current densities induced by NaCN in the presence of blocker” value [1]?
**A.** 23.0±2.1 pA/pF

**Q.** And the “ratio of peak current density induced by NaCN in the presence of blocker to that on exposure to NaCN alone” value [1]?
**A.** 1.2±0.1

**Q.** And the “effect on IKATP” value [3]?
**A.** abolished

**Q.** Which results are given for CCCCC/C=C\C/C=C\C/C=C\C/C=C\CCCC(=O)N[C@H](C)CO [methanandamide]?
**A.** effect on NaCN induced current ([1]; methanandamide 20 μM): does not block the current induced by NaCN; effect on NaCN induced current ([1]; methanandamide 20 μM to 100 μM): does not prevent the appearance of the NaCN induced current; effect on NaCN induced current ([1]; methanandamide 40 and 100 μM): significant increase; effect on NaCN induced current ([1]; methanandamide 40 and 100 μM, listed as Methanandamide): significantly increased

**Q.** Which “activation of IKATP” value ([3]; pinacidil 100 μM together with low intracellular ATP 0.1 mM) does the source give for CC(N/C(=N\C#N)Nc1ccncc1)C(C)(C)C (centres unmarked) [pinacidil] here?
**A.** activated

**Q.** Which results are given for C=C[C@H]1C[N@@]2CC[C@H]1C[C@@H]2[C@@H](O)c1ccnc2ccc(OC)cc12 [quinidine]?
**A.** effect on NaCN induced current ([1]; agent 1 mM): can prevent the appearance of the current induced by NaCN; effect on NaCN induced current ([1]; quinidine 0.5 mM): completely abolished; also recorded: can both block the peak current induced by NaCN and prevent its occurrence; sensitivity of NaCN induced current in the presence of altered internal pH [1]: remains sensitive; effect on IKATP [3]: unaffected; effect on TJ induced current [4]: partially blocked; effect on NaCN induced current and cell shrinkage [5]: prevent the appearance of the NaCN induced current and cell shrinkage
